Ends that are not written are not given here.
How the values were obtained:
[1] = tested on: SAg-specific hybridoma cells / T cell line with VAVY APC; assay: Antigen Processing Independent Presentation System (APIPS) assay, fresh or fixed VAVY APC; type: cell-based, DR3 mice; conditions: DR3 hybridoma clone (IL-2, 48 h) or T cell line (IFN-γ, 24 h)
Description: (§1) FIG. 2: identification of apitopes within HIP-115. (A) DR3 mice were immunized with SAg and hybridomas were generated. 5×10^4 SAg-specific hybridoma cells were cultured with 5×10^4 fresh or fixed commercial APC (VAVY) cells. T cell proliferation was measured by IL-2 ELISA on supernatants collected after 48 h. The graph represents the mean of duplicate measurements±SEM. (B) DR3 mice were immunized with HIP-115 and a T cell line was established. Ten days after immunization the LN and spleens were harvested and cultured with different concentrations of peptide (0.1-1-2.5 and 5 μg/ml); 2×10^6 cells/ml APC+1×10^6 cells/ml CD4 T cells per well. At day 7 the cells were re-stimulated with the same concentrations of peptide. On day 14 an APIPS test was done using commercial APC (VAVY). After 24 h, antigen-induced T cell activation was measured by IFN-γ ELISA and shown as IFN-γ concentration (pg/ml). The graph represents the mean of duplicate measurements±SEM. LN, lymph nodes; APC, Antigen presenting cell; APIPS, Antigen Processing Independent Presentation System.
as §1, with “3:” for “2:”, “HIP-241125.” for “HIP-115.”, “HIP-241125+HIP-24DG” for “HIP-115”
(§2) FIG. 5: Identification of apitopes within HIP-17GN. DR3 mice were immunized with HIP-17GN and a T cell line was established. Ten days after immunization the LN and spleens were harvested and cultured with different concentrations of peptide (0.1-1-2.5 and 5 μg/ml); 2×10^6 cells/ml APC+1×10^6 cells/ml CD4 T cells per well. At day 7 the cells were re-stimulated with the same concentrations of peptide. On day 14 an APIPS test was done using commercial APC (VAVY). After 24 h, antigen-induced T cell activation was measured by IFN-γ ELISA and shown as OD values. The graph represents the mean of triplicate measurements±SEM. LN, lymph nodes; APC, Antigen presenting cell; APIPS, Antigen Processing Independent Presentation System.
as §2, with “6:” for “5:”, “HIP-12AK.” for “HIP-17GN.”, “HIP-12AK” for “HIP-17GN”, “IFN-γ concentration (pg/ml).” for “OD values.”, “duplicate” for “triplicate”
Antigen-specific clones or TCL were tested for their reactivity to the peptides, presented by fixed or not fixed (fresh) cells (VAVY or MGAR) (=APCs). 5×10^4 cells from the individual clones were cultured with 10 μg/ml peptide and 5×10^4 fixed or fresh APCs. […]

[2] = tested on: LN cells and splenocytes upon SAg or peptide restimulation; assay: Ex vivo tolerization experiment, DR3tg mice; type: in vivo; conditions: DR3 mice, IFN-γ; for tolerization against SAg: escalating dose regime s.c.
Description: FIG. 7: Ex vivo tolerisation protocol. Mice are injected subcutaneously in the flank with 0.1 μg/ml, 1 μg/ml and 10 μg/ml peptide on days −15, −13 and −11, followed by 3 injections of 100 μg/ml on days −8, −6 and −4 (escalating dose regime). On day 0, mice are immunized subcutaneously at the base of the tail with SAg/CFA or peptide/CFA. Mice are sacrificed 10 days after immunization to measure proliferation of LN cells and splenocytes upon SAg or peptide restimulation. LN, lymph nodes.
FIG. 8: Ex vivo tolerance induction by HIP-115NE3-KKK apitope. DR3 mice are injected subcutaneously in the flank with 0.1 μg/ml, 1 μg/ml and 10 μg/ml HIP-115NE3-KKK on days −15, −13 and −11, followed by 3 injections of 100 μg/ml on days −8, −6 and −4 (escalating dose regime). On day 0, mice are immunized subcutaneously at the base of the tail with HIP-115/CFA. Mice are sacrificed 10 days after immunization to measure proliferation of LN cells and splenocytes upon SAg or peptide restimulation. Data represent mean±SEM of the concentration or OD values for the PBS-treated mice (black lines) and peptide-treated mice (color lines). Two-way ANOVA was used to measure overall treatment effects on T cell activation and p-values are written in the graphs. Bonferonni post-hoc testing was used and significant differences are indicated in the graphs (* p<0.05; **** p<0.0001). LN, lymph nodes. (A) Tolerisation against SAg in LN. IFN-γ production expressed as IFN-γ concentration (pg/ml). (B) Tolerisation against SAg in spleen. IFN-γ production expressed as IFN-γ concentration (pg/ml). (C) Tolerisation against HIP-115 and HIP-115NE3 peptides in LN. IFN-γ production expressed as OD values. (D) Tolerisation against HIP-115 and HIP-115NE3 peptides in spleen. IFN-γ production expressed as OD values.
FIG. 9: Ex vivo tolerance induction by HIP-11B apitope. DR3 mice are injected subcutaneously in the flank with 0.1 μg/ml, 1 μg/ml and 10 μg/ml HIP-11B on days −15, −13 and −11, followed by 3 injections of 100 μg/ml on days −8, −6 and −4 (escalating dose regime). On day 0, mice are immunized subcutaneously at the base of the tail with HIP-11B/CFA. Mice are sacrificed 10 days after immunization to measure proliferation of LN cells and splenocytes upon SAg or peptide restimulation. Data represent mean±SEM of the concentration values for the PBS-treated mice (black lines) and peptide-treated mice (color lines). IFN-γ production expressed as IFN-γ concentration (pg/ml). Two-way ANOVA was used to measure overall treatment effects on T cell activation and p-values are written in the graphs. Bonferonni post-hoc testing was used and significant differences are indicated in the graphs (* p<0.05; **** p<0.0001). LN, lymph nodes. (A) Tolerisation against SAg in LN. (B) Tolerisation against SAg in spleen. (C) Tolerisation against HIP-11B peptide in LN. (D) Tolerisation against HIP-11B peptide in spleen.
FIG. 10: Ex vivo tolerance induction by HIP-24DG apitope. DR3 mice are injected subcutaneously in the flank with 0.1 μg/ml, 1 μg/ml and 10 μg/ml HIP-24DG on days −15, −13 and −11, followed by 3 injections of 100 μg/ml on days −8, −6 and −4 (escalating dose regime). On day 0, mice are immunized subcutaneously at the base of the tail with HIP-24DG+HIP-24HM/CFA. Mice are sacrificed 10 days after immunization to measure proliferation of LN cells and splenocytes upon SAg or peptide restimulation. Data represent mean±SEM of the OD values for the PBS-treated mice (black lines) and peptide-treated mice (color lines). IFN-γ production expressed as OD values. LN, lymph nodes. Two-way ANOVA was used to measure overall treatment effects on T cell activation and p-values are written in the graphs. Bonferonni post-hoc testing was used and significant differences are indicated in the graphs (* p<0.05; ** p<0.01; *** p<0.001: **** p<0.0001). LN, lymph nodes. (A) Tolerisation against SAg in LN. (B) Tolerisation against HIP-24DG in LN. (C) Tolerisation against HIP-24HM2 peptide in LN. […]

Solubility of peptides = type: physicochemical
Description: The solubility of potential apitopes from S—Ag are determined by visual observations and turbidity measurement by UV spectrophotometry at 280 nm. The solubility of the peptides can be modified by adding amino acids ‘GKK’ or ‘KKK’ (or similar) on both the C- and N-terminus of the sequence. Modifications that may be suitable are described in WO2014/072958 (which is hereby incorporated by reference).
For some of these peptides, the parental peptides were insoluble, and solubility is a critical parameter for them to work as a tolerogenic peptide. Several end-terminal modifications can be used and as example used here they were improved by addition of 3 lysines before and after the original peptide sequence (labelled as ‘-KKK’ versions).

| Substance | behaves as apitope (response to peptide presented by fresh or fixed APC) [1] | further results |
| --- | --- | --- |
| ERRGIALDGKIKH-NH2 [HIP-11AC1, ERRGIALDGKIKH] | behave as apitopes | – |
| FKKISRDKSVTIY-NH2 [HIP-115NE2, FKKISRDKSVTIY] | behave as apitopes | – |
| GILVSYQIKVK-NH2 [HIP-12G1, GILVSYQIKVK] | behave as apitopes | – |
| HIP-17K1-KKK: '-KKK' version (3 lysines before and after the sequence) of HIP-17K1; its sequence is not printed (KKKTFRRDLYFSRVQKKK) | behave as apitopes | – |
| HVIFKKISRDKSVTIYLGN-NH2 [HIP-115NE, HVIFKKISRDKSVTIYLGN] | behave as apitopes | – |
| KKISRDKSVTI-NH2 [HIP-115NE1, KKISRDKSVTI] | behave as apitopes | – |
| KKKVIGLTFRRDLYFSRVQVYPPVGKKK-NH2 [HIP-17GN-KKK] | behave as apitopes | tolerization against SAg ([2]; spleen): tolerization induced |
| KKKVLGILVSYQIKVKLTKKK-NH2 [HIP-12E-KKK] | behave as apitopes | – |
| LTFRRDLYFSRVQVY-NH2 [HIP-17J, LTFRRDLYFSRVQVY] | behave as apitopes | – |
| LTLLPLLANNRERRGIALDG-NH2 [HIP-24HM] | behave as apitopes | – |
| LTLLPLLANNRERRGIALDGKIKHEDTNLASSTIIKEG-NH2 [HIP-241125] | behave as apitopes | – |
| NRERRGIALDGKIKHED-NH2 [HIP-11AC, NRERRGIALDGKIKHED] | behave as apitopes | – |
| PLLANNRERRGI-NH2 [HIP-24HM2, PLLANNRERRGI] | behave as apitopes | solubility (Solubility of peptides): soluble |
| RERRGIALDGKIKHE-NH2 [HIP-11B, RERRGIALDGKIKHE] | behave as apitopes | tolerization against the peptide itself / peptides of the same region ([2]; LN): tolerization induced; tolerization against SAg ([2]; LN): tolerization induced; tolerization against the peptide itself ([2]; spleen): tolerization induced; tolerization against SAg ([2]; spleen): tolerization induced |
| VIGLTFRRDLYFSRVQVYPPVG-NH2 [HIP-17GN] | behave as apitopes | – |
